US12617752B2, “Rapidly metabolized lipid compound” (Beijing Jitai Life Sciences Ltd, priority 2023, dated 2026)

Assays:
HEK293T cells [1] = test: In vitro delivery efficiency of luciferase mRNA nanoparticles (luciferase expression); type: cell-based, human; details: 24 h
Experimental: (§1) The delivery effect and safety of nanoparticles encapsulated with luciferase mRNA were evaluated at the cellular level in vitro. The cells used in the assay were human embryonic kidney cells 293 (HEK293T cells) cultured in DMEM (Dulbecco's Modified Eagle Medium) (purchased from Thermo Fisher) containing 10% fetal bovine serum and 5% penicillin-streptomycin double antibiotics at a indoor temperature of 37° C. and a CO2 concentration of 5%. The cells were uniformly dispersed and spread in 48-well plates, and incubated in the incubator for 24 h. Then a solution of the lipid nanoparticles encapsulated with luciferase mRNA were added. After 24 h, the cells were lysed, and the intracellular expression intensity and relative light units (RLU) of luciferase in each type of lipid nanoparticles were measured with a luciferase detection reagent (purchased from Promega). The higher the intensity of expression, the higher the delivery efficiency of the lipid material at the cellular level. […] The absorbance values were read on a multifunctional microplate reader at an absorbance band of 450 nm. The ratio of the absorbance value of the nanoparticle-treated cells to that of the negative control was used as a characterization parameter for cell viability.

HEK293T cells [2] = test: Cytotoxicity testing with CCK-8 reagent; type: cell-based, human; details: CCK-8, 24 h, relative to PBS negative control
Experimental: as §1

[3] = Encapsulation efficiency of lipid nanoparticles (Quant-it RiboGreen RNA Assay); type: physicochemical; details: lipid nanoparticles with luciferase mRNA
In short: (§2)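 LNPs of ionizable lipid/cholesterol/phospholipid/PEG-lipid (50/38.5/10/1.5 mol%, N/P 6) were formed by microfluidic mixing with mRNA in pH 4.5 acetate, then buffer-exchanged by ultrafiltration. Size and PDI were measured by DLS. Encapsulation came from RiboGreen fluorescence (485/528 nm) in TE pH 7.5, with and without 0.5% Triton at 37 °C for 30 min.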

C57BL/6 mice = test: In vivo delivery of luciferase mRNA lipid nanoparticles in mice (bioluminescence imaging); details: intravenous, single dose 0.5 mg/kg luciferase mRNA
In short: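 Female C57BL/6 mice, 6-8 weeks old, received luciferase mRNA lipid nanoparticles as a single intravenous dose of 0.5 mg/kg mRNA. At 6 h, D-luciferin given intraperitoneally; 10 min later, mice were imaged under isoflurane anaesthesia. Values are group mean fluorescence intensity and total photon count.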

[4] = Particle size and PDI of lipid nanoparticles by dynamic light scattering; type: physicochemical; details: lipid nanoparticles with luciferase mRNA; ionizable lipid/cholesterol/DSPC/DMG-PEG2000 50/38.5/10/1.5 mol%
In short: as §2

[5] = Clearance rate of ionizable lipids in vivo (liver content by LC-MS/MS); details: C57 WT female mice, tail vein, 100 μL unloaded LNP (0.1 mg/mL)
Experimental: The 6-8 weeks old C57 WT female mice (n=3) were injected by tail vein administration of 100 μL of unloaded LNP (0.1 mg/mL) formed from the ionizable lipid, cholesterol, DSPC, and DMG-PEG 2000 at a ratio of 50:38.5:10:1.5. The experimental animals were executed by removing the cervical vertebrae and dissected for the liver at 24 h and 72 h after administration, respectively, while the same batch of non-dosed experimental animal livers were used as a blank control group. Water was added to the liver sample for homogenization, and the protein was precipitated. The content of the ionizable lipid in the sample was quantitatively analyzed using LC-MS/MS in comparison to a calibration standard prepared from matched blank liver tissues.

SMILES	Luciferase luminescence of cell lysate (HEK293T cells [1]) [RLU]	Cell viability (%) (HEK293T cells [2])	Encapsulation efficiency (%) [3] [%]	Total photon count in vivo at 6 hours after administration (Total Flux) (C57BL/6 mice)	Particle size (nm) [4] [nm]	Particle-size distribution (PDI) [4]	Percentage of cationic lipids in the liver in the total dose, 24 h after administration (%) [5] [%]	Percentage of cationic lipids in the liver in the total dose, 72 h after administration (%) [5] [%]
CCCCCCCCCOC(=O)CCCCCCCN(CCO)CCCCC(C)(C)CCC(=O)OC(CCCCCCCC)CCCCCCCC [20a]	6.55E+06	105.11	87.83	1.18E+11	102.13	0.032		
CCCCCCCCCCOC(=O)OCCCCCCN(CCO)CCCCCC(C)(C)COC(=O)CCC(CCCCCC)CCCCCC [26b]			94.58	6.53E+10	113.77	0.14	8	<1
CCCCCCCCCOC(=O)OCCCCCCN(CCO)CCCCCCC(C)(C)C(=O)OC(CCCCCCCC)CCCCCCCC [30a]			86.94	8.32E+10	107.40	0.12	4	<2
CCCCCCCCCCC(=O)OCC(C)(C)CCCCCN(CCCCCCCC(=O)OC(CCCCCCCCC)CCCCCCCCC)C(=O)SCCCN(C)C [39b]			93.58	7.16E+10	102.67	0.07	<1	<1
CCCCC#CCCCOC(=O)CCCCCCCN(CCO)CCCCCCC(C)(C)C(=O)OC(CCCCCCCC)CCCCCCCC [56a]			82.84	3.23E+10	86.37	0.09	<1	<1
CCCCC/C=C\C/C=C\CCCCCCCCC(CCCCCCCC/C=C\C/C=C\CCCCC)OC(=O)CCCN(C)C [MC3, DLin-MC3-DMA, reference compound]	2.95E+06	97.84	95.62	8.04E+09	96.83	0.04		
